Assay results from EP0565593B1, “REDUCING PESTICIDAL INTERACTIONS IN CROPS” (priority 1990, dated 1992).
Where “and” joins values, the source holds several entries; their conditions need not be identical. Equal values may be shown once. Read-outs that look alike come from different tables or passages of the source.

Columns and labels:
Velvetleaf (VELE) [1] = test: whole plant or invertebrate; assay type: in vivo, Abutilon theophrasti; details: in vivo
Giant foxtail (GIFT) = test: whole plant or invertebrate; assay type: in vivo; details: in vivo
Velvetleaf (VELE) [2] = assay type: in vivo, Abutilon theophrasti
Shattercane (SHCA) = assay type: in vivo
Corn [3] = tested on: Corn
Corn [4] = details: MON-12000 + OP insecticides; Examples 20-23
[5] = Antidote 4.48 + Biocide No. 1 8.96 Kg/Ha PPI, Herb. No. 8 0.07, 5 DAP, before herbicide application
[6] = Antidote 4.48 + Biocide No. 1 8.96 Kg/Ha PPI, Herb. No. 8 0.07 POE, 13 DAP
[7] = Antidote 4.48 + Biocide No. 1 8.96 Kg/Ha PPI, Herbicide No. 7 0.28 POE, 13 days after planting
[8] = Herb. […], 5 DAP, before herbicide application
[9] = Herb. […], 13 DAP, after herbicide application
[10] = Table 14: Herbicide No. 7 (ACCENT) 0.84 Kg/Ha POE + Biocide No. 2 8.96 Kg/Ha PPI + antidote 4.48 Kg/Ha PPI, 13 days after planting, 8 days after herbicide
[11] = […], 13 days after planting, 8 days after herbicide
[12] = […], observed 10 days after herbicide application
[13] = Antidote 8.96 + Biocide No. 1 8.96 Kg/Ha PPI, Herb. No. 8 0.07, 5 DAP, before herbicide application
[14] = Antidote 8.96 + Biocide No. 1 8.96 Kg/Ha PPI, Herb. No. 8 0.07 POE, 13 DAP
[15] = Antidote 8.96 + Biocide No. 1 8.96 Kg/Ha PPI, Herbicide No. 7 0.28 POE, 13 days after planting
[16] = Table 14: Herbicide No. 7 (ACCENT) 0.84 Kg/Ha POE + Biocide No. 2 8.96 Kg/Ha PPI + antidote 8.96 Kg/Ha PPI, 13 days after planting, 8 days after herbicide

Row | Structure (SMILES) | % Inhibition GIFT (Giant foxtail (GIFT)) | % Inhibition 5 DAP VELE (Velvetleaf (VELE) [2]; [8]) | % Inhibition VELE (Velvetleaf (VELE) [2]; [11]) | % Inhibition VELE (Velvetleaf (VELE) [2]; [12]) | % Inhibition 5 DAP VELE (Velvetleaf (VELE) [2]; in vivo) | % Inhibition 13 DAP VELE (Velvetleaf (VELE) [2]; in vivo) | % Inhibition SHCA (Shattercane (SHCA); [11]) | % Inhibition SHCA (Shattercane (SHCA); [12]) | % Inhibition 5 DAP SHCA (Shattercane (SHCA); in vivo) | % Inhibition 13 DAP SHCA (Shattercane (SHCA); in vivo) | % Inhibition SHCA (Shattercane (SHCA); in vivo) | % Inhibition 5 DAP Corn (Corn [3]; [8]) | % Inhibition Corn (Corn [3]; [11]) | % Inhibition Corn (Corn [3]; [12]) | % Inhibition 5 DAP Corn (Corn [3]; in vivo) | % Inhibition 13 DAP Corn (Corn [3]; in vivo) | further results
1 | CCOC(=O)c1cnoc1-c1ccc(Cl)cc1Cl [compound 30] | 65% and 80% and 90% and 75% and 95% | 90% | 100% | 95% | 80% | 95% | 90% | 70% | 25% | 95% | 90% and 60% and 70% | 0% | 25% | 70% | 10% | 56% | % Inhibition VELE (Velvetleaf (VELE) [1]): 90% and 95% and 100%; % Inhibition 5 DAP VELE (Velvetleaf (VELE) [2]; [5]): 75%; % Inhibition 13 DAP VELE (Velvetleaf (VELE) [2]; [6]): 95%; % Inhibition VELE (Velvetleaf (VELE) [2]; [7]): 95%; % Inhibition 13 DAP VELE (Velvetleaf (VELE) [2]; [9]): 95%; % Inhibition VELE (Velvetleaf (VELE) [2]; [10]): 100%; % Inhibition 5 DAP SHCA (Shattercane (SHCA); [5]): 50%; % Inhibition 13 DAP SHCA (Shattercane (SHCA); [6]): 75%; % Inhibition SHCA (Shattercane (SHCA); [7]): 85%; % Inhibition 13 DAP SHCA (Shattercane (SHCA); [9]): 95%; % Inhibition SHCA (Shattercane (SHCA); [10]): 90%; % Inhibition 5 DAP Corn (Corn [3]; [5]): 10%; % Inhibition 13 DAP Corn (Corn [3]; [6]): 50%; % Inhibition Corn (Corn [3]; [7]): 55%; % Inhibition Corn (Corn [3]; [10]): 30%; % Inhibition Corn (Corn [3]; in vivo): 50% and 35% and 40%; effect on corn before application of the herbicide (Corn [3]; in vivo): Some injury
2 | COc1ccc(OC)c(C(=O)CC2OC(=O)c3ccccc32)c1 (stereo not drawn) [compound 77] | 60% and 95% and 85% and 80% and 70% | 0% | 70% | 80% | 20% | 95% | 95% | 60% | 60% | 90% | 85% and 55% and 65% and 45% | 0% | 15% | 20% | 15% | 65% | safening activity (Corn [4]): low or nil; % Inhibition 5 DAP VELE (Velvetleaf (VELE) [2]; [13]): 0%; % Inhibition 13 DAP VELE (Velvetleaf (VELE) [2]; [14]): 90%; % Inhibition VELE (Velvetleaf (VELE) [2]; [15]): 65%; % Inhibition VELE (Velvetleaf (VELE) [2]; [16]): 70%; % Inhibition 5 DAP SHCA (Shattercane (SHCA); [13]): 10%; % Inhibition 13 DAP SHCA (Shattercane (SHCA); [14]): 85%; % Inhibition SHCA (Shattercane (SHCA); [15]): 70%; % Inhibition SHCA (Shattercane (SHCA); [16]): 85%; % Inhibition 5 DAP Corn (Corn [3]; [13]): 0%; % Inhibition 13 DAP Corn (Corn [3]; [14]): 75%; % Inhibition Corn (Corn [3]; [15]): 25%; % Inhibition Corn (Corn [3]; [16]): 25%; activity in reducing corn injury (Corn [3]; primisulfuron POE + biocides PPI, Tables 8-10): either inactive or weakly active
